Assay results from patent US20060205826A1, “Method of using carotenoids in the prevention of cognitive decline and for other neuroprotection functions” (priority 2005, published 2006).
“Also recorded” adds a separate entry of the source.

Assays:
diabetic mouse brain = details: diabetic mice killed 20 days after streptozotocin administration; Saravia et al. 2004; cited from earlier work
diabetic rats = details: Lupien et al. (2003); cited from earlier work
GSH = GSH content in hippocampus homogenate of diabetic mice; assay type: in vivo; details: lutein 0.2 mg/kg p.o. or insulin 500 mU/g s.c. on days 4-13
Method: (§1) Male albino mice were used throughout the study, housed in a environmentally regulated room on a dark-light cycle of 12 hours with free access to food and water. Principles of laboratory animal care (NIH publication no. 85-23, revised 1985) were followed, as well as specific Spanish regulations. Animals were made diabetic with a single subcutaneous injection of 200 mg alloxan/kg body weight (66 mg/ml) in 0.1 M citrate buffer, pH 4.5, at day 0 of the experiment. Control mice were injected with the same volume of vehicle also at day 0 of the experiment.
Mice were identified as diabetic on the basis of blood glucose levels (higher than 16 mM at least 4 days after alloxan treatment). Animals were divided into subgroups as required by the experiment (control, control+lutein, diabetic, diabetic+lutein, diabetic+insulin, diabetic+insulin+lutein). Lutein was administered daily at a dose of 0.2 mg/kg p.o since day 4 after alloxan or citrate buffer injection until the end of the experiment. […] Glycated hemoglobin was determined in blood samples obtained by heart puncture immediately before killing the animals.
The GSH content of eye homogenate was quatitated by the method of Reed et al. (Reed et al., 1980). […] These products are quickly separated by HPLC which allows the quantification of nanomolars levels of GSH.

diabetic rodents = details: insulin treatment from the onset of diabetes, Biessels et al 1998; cited from earlier work
alloxan diabetic mice = test: Electroretinogram (ERG) amplitude in diabetic mice; assay type: in vivo; details: lutein 100 mg/kg p.o. or insulin 500 mU/g s.c. on days 4-13
Method: Male albino mice were used throughout the study, housed in a environmentally regulated room on a dark-light cycle of 12 hours with free access to food and water. Principles of laboratory animal care (NIH publication no. 85-23, revised 1985) were followed, as well as specific Spanish regulations. Animals were made diabetic with a single subcutaneous injection of 200 mg alloxan/kg body weight (66 mg/ml) in 0.1 M citrate buffer, pH 4.5, at day 0 of the experiment. Control mice were injected with the same volume of vehicle also at day 0 of the experiment. Mice were identified as diabetic on the basis of blood glucose levels (higher than 16 mM at least 4 days after alloxan treatment). Animals were divided into subgroups as required by the experiment (control, control+lutein, diabetic, diabetic+lutein, diabetic+insulin, diabetic+insulin+lutein). […] Insulin treated animals were injected daily with 500 mU/g body weight since day 4 until the end of the experiment. Mice were killed by cervical dislocation on day 14, and hippocampus and retina were removed and homogenized in pre-chilled 0.2 M potassium phosphate buffer, pH 7.0. These homogenates were used to assay protein, GPx activity and MDA and GSH concentrations. […] Glycated hemoglobin was determined in blood samples obtained by heart puncture immediately before killing the animals.

[1] = system: MDA, a lipid peroxidation product; test: MDA concentration by liquid chromatography in serum, eye and hippocampus of diabetic mice; assay type: in vivo
Method: as §1
Mice were identified as diabetic on the basis of blood glucose levels (higher than 16 mM at least 4 days after alloxan treatment). Animals were divided into subgroups as required by the experiment (control, control+lutein, diabetic, diabetic+lutein, diabetic+insulin, diabetic+insulin+lutein). […] Insulin treated animals were injected daily with 500 mU/g body weight since day 4 until the end of the experiment. Mice were killed by cervical dislocation on day 14, and hippocampus and retina were removed and homogenized in pre-chilled 0.2 M potassium phosphate buffer, pH 7.0. These homogenates were used to assay protein, GPx activity and MDA and GSH concentrations. Samples were kept frozen (−80° C.) until biochemical assays were performed. Blood was taken from the tail vein daily to assay blood glucose levels. Glycated hemoglobin was determined in blood samples obtained by heart puncture immediately before killing the animals.
MDA, a lipid peroxidation product, concentration was measured by liquid chromatography according to a modification of the method of Richard et al. (1992) as previously described (Romero et al., 1998). Briefly, 0.1 ml of sample (or standard solutions prepared daily from 1,1,3,3-tetramethoxypropane) and 0.75 ml of working solution (thiobarbituric acid 0.37% and perchloric acid 6.4%; 2/1, v/v) were mixed and heated to 95° C. for 1 h. After cooling (10 min in ice water bath), the flocculent precipitate was removed by centrifugation at 3,200×g for 10 min. The supernatant was neutralized and filtered (0.22 μm) prior to injection on an ODS column 5 μm column (250×4.6 mm). Mobile phase consisted in 50 mM phosphate buffer (pH 6.0): methanol (58:42, v/v). Isocratic separation was performed with 1.0 ml/min flow (HPLC System 325, Kontron) and detection at 532 nm (UV/VIS HPLC Detector 332, Kontron). Calibration curves were run daily.

GPx activity = GPx activity in eye and hippocampus homogenate of diabetic mice; assay type: in vivo
Method: Male albino mice were used throughout the study, housed in a environmentally regulated room on a dark-light cycle of 12 hours with free access to food and water. Principles of laboratory animal care (NIH publication no. 85-23, revised 1985) were followed, as well as specific Spanish regulations. Animals were made diabetic with a single subcutaneous injection of 200 mg alloxan/kg body weight (66 mg/ml) in 0.1 M citrate buffer, pH 4.5, at day 0 of the experiment. Control mice were injected with the same volume of vehicle also at day 0 of the experiment. Mice were identified as diabetic on the basis of blood glucose levels (higher than 16 mM at least 4 days after alloxan treatment). Animals were divided into subgroups as required by the experiment (control, control+lutein, diabetic, diabetic+lutein, diabetic+insulin, diabetic+insulin+lutein). […] Insulin treated animals were injected daily with 500 mU/g body weight since day 4 until the end of the experiment. Mice were killed by cervical dislocation on day 14, and hippocampus and retina were removed and homogenized in pre-chilled 0.2 M potassium phosphate buffer, pH 7.0. These homogenates were used to assay protein, GPx activity and MDA and GSH concentrations. Samples were kept frozen (−80° C.) until biochemical assays were performed. Blood was taken from the tail vein daily to assay blood glucose levels. Glycated hemoglobin was determined in blood samples obtained by heart puncture immediately before killing the animals. GPx activity was assayed as reported by Lawrence et al. (1978) towards hydrogen peroxide. The disappearance of NADPH was followed spectrophotometrically at 340 nm. The reaction mixture consisted of 240 mU/ml of glutathione disulfide reductase, 1 mM GSH, 0.15 mM NADPH in 0.1 M potassium phosphate buffer, pH 7.0, containing 1 mM EDTA and 1 mM sodium azide; 50 μl sample were added to this mixture and allowed to equilibrate at 37° C. for 3 min. reaction was started by the addition of 1.5 mM hydrogen peroxide to adjust the final volume of the assay mixture to 1 ml.

[2] = lutein 100 mg/kg p.o. or insulin 500 mU/g body weight s.c. on days 4-13

C[C@]12CC[C@@H]3c4ccc(O)cc4CC[C@H]3[C@@H]1CC[C@@H]2O [17beta-oestradiol]
brain cell proliferation (diabetic mouse brain): restored

IGF-I
cognition-related performance in the water maze (diabetic rats): prevent loss of cognition-related performance

insulin [reference compound]
GSH content in hippocampus homogenate (GSH): restored | learning impairment in Morris water maze (diabetic rodents): can prevent this learning impairment | ERG amplitude (mostly b-wave) (alloxan diabetic mice): partially reversed | MDA levels in hippocampus ([1]; lutein 0.2 mg/kg p.o. or insulin 500 mU/g body weight s.c. on days 4-13): restored; also recorded: able to prevent this effect | MDA levels in ocular tissue [1, 2]: restored; also recorded: able to prevent this effect | MDA levels in serum [1, 2]: restored | retinal GPx activity (GPx activity; eye homogenate without lens, lutein 100 mg/kg p.o. or insulin 500 mU/g s.c. on days 4-13): partially reversed | GPx activity in hippocampus homogenate (GPx activity; lutein 0.2 mg/kg p.o. or insulin 500 mU/g s.c. on days 4-13): restored
